Assays:
[1] = tested on: Pseudomonas aeruginosa, Escherichia coli, and Salmonella typhinurium; assay: Long-term anti-microbial activity test of cured powder coatings (bacterial coverage rating); details: cured epoxy powder coating; for AVERAGE BACTERIAL COVERAGE: growth rating 0 (good) to 4 (poor), averaged over the different samples (0.1 and 1 percent additive, different thickness), after four weeks; for bacterial coverage / activity relative to the control: long-term test
Experimental: A long-term anti-microbial activity test was carried out to determine if selected anti-microbial agents maintain their anti-microbial activity after being incorporated into powder coatings and cured.
Six anti-microbial agents were selected for experimentation. […] For each powder coating formulation, one of the six anti-microbial agents was added at concentrations of 0.1 percent and 1 percent of the total resin weight.
Samples containing one of the six additives at the two concentrations in the coating matrix were prepared. […] Controls containing the coating formulation with no additive and controls containing only the black silicone resin used for edge coverage were included.
The target bacterial organisms were Pseudomonas aeruginosa, Escherichia coli, and Salmonella typhinurium. Five groups of samples were prepared. […] Each of the following samples was prepared with an additive concentration of 1 percent of the resin by weight.
The results were then rated on a scale of “0” (good performance) to “4” (poor performance) based on the number of colony-forming units observed. The growth ratings, which were averaged over the different samples, are based on the following numerical rating system:
0=No contamination (sterile).
1=Trace of contamination (1-9 colonies per “streak-inch”).
2=Light contamination (10-99 colonies per “streak-inch”).
3=Moderate contamination (greater than 100 colonies, but still distinguishable).
4=Heavy contamination (continuous smear of growth).

[2] = tested on: fungus spores of Aspergillus niger, Penicillium funiculosum, and Aerobasidium pullulans; assay: Shorter-term fungal test per ASTM D 5588-94; format: cell-based; details: after 72 hours of incubation
Experimental: Next, steel coupons were coated with the anti-microbial formulations listed above and exposed per ASTM D 5588-94 to a mixture containing the fungus spores of Aspergillus niger, Penicillium funiculosum, and Aerobasidium pullulans. After the coupons were washed with a 70 percent ethanol/water solution, they were placed in a sterile Petri dish, inoculated, and incubated at 28° C. for the duration of the test. At appropriate intervals, each sample was checked for the presence of viable microorganisms by streaking each sample with a sterile cotton swab, then streaking the swab onto Potato Dextrose Agar (adjusted to pH 3.5 for fungi). These plates were also incubated at 28° C. […] The presence of microbial growth would indicate non-sterility, i.e., the sample contained viable microbial contamination.

[3] = tested on: Pseudomonas aeruginosa, Staphylococcus aureus, and Escherichia coli; assay: Shorter-term bacterial test per ASTM D 5588-94; format: cell-based; details: after 72 hours of incubation; 0.1 percent and 1 percent formulations
Experimental: Steel coupons were coated with the Fungitrol® 11, Butyl Parabens®, and Amerstat® 300 anti-microbial formulations, at 0.1 percent and 1 percent, and exposed as per ASTM D 5588-94 to a mixture containing the bacteria Pseudomonas aeruginosa, Staphylococcus aureus, and Escherichia coli. After the coupons were washed with a 70 percent ethanol/water solution, they were placed in a sterile Petri dish, inoculated, and incubated at 32° C. for the duration of the test.
At appropriate intervals, each sample was checked for the presence of viable microorganisms by streaking each sample with a sterile cotton swab, then streaking the swab onto Tryptic Soy Agar. The plates were incubated for 48 hours at 32° C. […] The presence of microbial growth would indicate non-sterility, i.e., the sample contained viable microbial contamination.
The samples were examined for low levels of bacterial contamination by transferring an aliquot with a sterile cotton swab to a Tryptic Soy Broth in culture tubes. The tubes were incubated for 24 hours at 32° C., streaked onto Tryptic Soy Agar plates and the plates were incubated for 24 to 48 hours at 32° C.

[4] = tested on: Aspergillus niger (ATCC 6275), Penicillium funiculosum (ATCC 11797), and Aureobasidium pullulans (ATCC 9348); assay: Resistance to fungal growth, ASTM D5590-95, mixed spore suspension; details: concentration of 1 percent; four weeks of exposure to fungus spores
Experimental: Resistance to fungal growth was tested generally in accordance with ASTM D5590-95. […] Samples were aseptically placed onto a modified malt agar plate and then each sample was inoculated.
The same samples were also exposed to fungus spores for a period of four weeks.

[5] = tested on: Staphylococcus aureus, Escherichia coli, and Salmonella choleraesuis; assay: AATCC Test Method 147 at higher anti-microbial concentration (zones of inhibition)
[6] = 5 percent agent in powder coating

Row | Structure (SMILES) | AVERAGE BACTERIAL COVERAGE [1] | fungal growth on coating surface [4] | bacterial coverage / activity relative to the control [1] | also measured
1 | CCCCOC(=O)c1ccc(O)cc1 [Butyl Parabens®, butyl-p-hydroxy-benzoate] | 2.6 ± 1.3 | free of visible fungal growth | – | growth on coated samples exposed to fungus spores [2]: free of (or showed very low levels of) bacterial growth; bacterial growth on coated samples [3]: free of bacterial growth and were actually sterile
2 | O=[N+]([O-])C(Br)(CO)CO [Canguard® 409, 2-bromo-2-nitropropane-1,3-diol] | – | – | – | zones of inhibition [5, 6]: Significant zones of inhibition; inhibiting the growth of Escherichia coli and Salmonella choleraesuis, compared with the triclosan formulation [5]: performed better than the triclosan formulation
3 | CCCOC(=O)c1ccc(O)cc1 [Propyl Parabens®] | 3.7 ± 0.5 | free of visible fungal growth | did not appear to improve the activity relative to the control | –
4 | CN1CSC(=S)N(C)C1 [Nuosept® S, 3,5-dimethyltetrahydro-1,3,5-2H-thiazine-2-thione] | 3.6 ± 0.5 | did not show conclusive fungal resistance | did not appear to improve the activity relative to the control | zones of inhibition [5, 6]: Significant zones of inhibition; zones of inhibition ([5]; 10 percent agent in powder coating): Significant zones of inhibition; inhibiting the growth of Escherichia coli and Salmonella choleraesuis, compared with the triclosan formulation [5]: performed as well as or better than the triclosan formulation
5 | N#Cc1c(Cl)c(Cl)c(Cl)c(C#N)c1Cl [Nuocide® 960, tetrachloroisophthalonitrile] | 3.0 ± 1.3 | free of visible fungal growth | – | –
6 | N#CC(Br)(Br)C(N)=O [Amerstat® 300, dibromocyanoacetamide] | 1.6 ± 1.5 | a very small amount of fungal growth | significantly improved bacterial coverage | bacterial growth on coated samples [3]: did not show conclusive results
7 | Oc1cc(Cl)ccc1Oc1ccc(Cl)cc1Cl [Irgasan® DP 400, 5-chloro-2-(2,4-dichloro-phenoxy)phenol] | – | – | – | zones of inhibition ([5]; 3 percent agent in powder coating): Significant zones of inhibition

Source: patent publication US6432416B1, “Anti-microbial power coating” (Dupont Powder Coatings USA, Inc., priority 1997, dated 2002)
